Laboratory results reported in ChEMBL document CHEMBL1201862, “PubChem BioAssay data set” (2004).
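A five-concentration, 48-hour dose response in 96-well plates underlies each endpoint, interpolated linearly between surrounding concentrations. Here, GI50 denotes the concentration required for 50% inhibition of growth.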 The source made the active and inactive calls. Cut-off read from the data, not from the text of the source: active = GI50 up to about 1.1 µM and inactive = higher.

Tests used:
Assay in all cases: NCI-60 cell line screen, 48 h
HOP-92 = tested on: HOP-92
KM-20L2 = tested on: KM-20L2
DMS-273 = tested on: DMS-273
SK-MEL-2 = tested on: SK-MEL-2
COLO 205 = tested on: COLO 205
DLD-1 = tested on: DLD-1
HOP-18 = tested on: HOP-18
SK-OV-3 = tested on: SK-OV-3
HT-29 = tested on: HT-29
KM12 = tested on: KM12
SNB-78 = tested on: SNB-78
HCT-116 = tested on: HCT-116
OVCAR-5 = tested on: OVCAR-5
SNB-19 = tested on: SNB-19
OVCAR-4 = tested on: OVCAR-4
786-0 = tested on: 786-0
HOP-62 = tested on: HOP-62
A549 = tested on: A549
NCI-H460 = tested on: NCI-H460
HCT-15 = tested on: HCT-15
LXFL 529 = tested on: LXFL 529
LOX IMVI = tested on: LOX IMVI
SW-620 = tested on: SW-620
K562 = tested on: K562
SF-295 = tested on: SF-295
M19-MEL = tested on: M19-MEL
MOLT-4 = tested on: MOLT-4
IGROV-1 = tested on: IGROV-1
EKVX = tested on: EKVX
OVCAR-3 = tested on: OVCAR-3
UACC-62 = tested on: UACC-62
NCI-H23 = tested on: NCI-H23
HL-60 = tested on: HL-60
U-251 = tested on: U-251
SF-539 = tested on: SF-539
ACHN = tested on: ACHN
NCI-H226 = tested on: NCI-H226
CCRF-CEM = tested on: CCRF-CEM
M14 = tested on: M14
CAKI-1 = tested on: CAKI-1
UO-31 = tested on: UO-31
SF-268 = tested on: SF-268
UACC-257 = tested on: UACC-257
SK-MEL-28 = tested on: SK-MEL-28
OVCAR-8 = tested on: OVCAR-8
TK-10 = tested on: TK-10
A498 = tested on: A498
SK-MEL-5 = tested on: SK-MEL-5
DMS-114 = tested on: DMS-114
RXF 393 = tested on: RXF 393
XF498 = tested on: XF498
NCI/ADR-RES = tested on: NCI/ADR-RES
SNB-75 = tested on: SNB-75
NCI-H522 = tested on: NCI-H522
HCC 2998 = tested on: HCC 2998
SN12C = tested on: SN12C
Malme-3M = tested on: Malme-3M
MCF7 = tested on: MCF7
RPMI-8226 = tested on: RPMI-8226
SR = tested on: SR

## CC(C)(C)c1cc(CCC(=O)Nc2ccc(Cl)cc2)nc(NC#N)n1
HOP-92
  GI50: 91 µM (inactive)
KM-20L2
  GI50: > 100 µM (inactive)
DMS-273
  GI50: > 100 µM (inactive)
SK-MEL-2
  GI50: > 100 µM (inactive)
COLO 205
  GI50: > 100 µM (inactive)
DLD-1
  GI50: > 100 µM (inactive)
HOP-18
  GI50: > 100 µM (inactive)
SK-OV-3
  GI50: > 100 µM (inactive)
HT-29
  GI50: > 100 µM (inactive)
KM12
  GI50: > 100 µM (inactive)
SNB-78
  GI50: > 100 µM (inactive)
HCT-116
  GI50: > 100 µM (inactive)
OVCAR-5
  GI50: > 100 µM (inactive)
SNB-19
  GI50: > 100 µM (inactive)
OVCAR-4
  GI50: > 100 µM (inactive)
786-0
  GI50: > 100 µM (inactive)
HOP-62
  GI50: > 100 µM (inactive)
A549
  GI50: > 100 µM (inactive)
NCI-H460
  GI50: > 100 µM (inactive)
HCT-15
  GI50: > 100 µM
LXFL 529
  GI50: > 100 µM (inactive)
LOX IMVI
  GI50: > 100 µM (inactive)
SW-620
  GI50: > 100 µM (inactive)
K562
  GI50: > 100 µM (inactive)
SF-295
  GI50: > 100 µM (inactive)
M19-MEL
  GI50: > 100 µM (inactive)
MOLT-4
  GI50: > 100 µM (inactive)
IGROV-1
  GI50: > 100 µM (inactive)
EKVX
  GI50: > 100 µM (inactive)
OVCAR-3
  GI50: > 100 µM (inactive)
UACC-62
  GI50: > 100 µM (inactive)
NCI-H23
  GI50: > 100 µM (inactive)
HL-60
  GI50: > 100 µM (inactive)
U-251
  GI50: > 100 µM (inactive)
SF-539
  GI50: > 100 µM (inactive)
ACHN
  GI50: > 100 µM (inactive)
NCI-H226
  GI50: > 100 µM (inactive)
CCRF-CEM
  GI50: > 100 µM (inactive)
M14
  GI50: > 100 µM (inactive)
CAKI-1
  GI50: > 100 µM (inactive)
UO-31
  GI50: > 100 µM (inactive)
SF-268
  GI50: > 100 µM (inactive)
UACC-257
  GI50: > 100 µM (inactive)
SK-MEL-28
  GI50: > 100 µM (inactive)
OVCAR-8
  GI50: > 100 µM (inactive)
TK-10
  GI50: > 100 µM (inactive)

## c1ccc2c(c1)OCCc1cn[nH]c1-2
HOP-92
  GI50: > 42.3 µM (inactive)
KM-20L2
  GI50: > 100 µM (inactive)
A498
  GI50: > 93.5 µM (inactive)
SK-MEL-5
  GI50: > 100 µM (inactive)
DMS-273
  GI50: > 100 µM (inactive)
SK-MEL-2
  GI50: > 100 µM (inactive)
COLO 205
  GI50: > 100 µM (inactive)
DLD-1
  GI50: > 100 µM (inactive)
DMS-114
  GI50: 99.1 µM (inactive)
HOP-18
  GI50: > 43.5 µM (inactive)
SK-OV-3
  GI50: > 100 µM (inactive)
HT-29
  GI50: > 100 µM (inactive)
RXF 393
  GI50: > 69.2 µM (inactive)
KM12
  GI50: > 100 µM (inactive)
SNB-78
  GI50: > 100 µM (inactive)
HCT-116
  GI50: > 100 µM (inactive)
OVCAR-5
  GI50: > 100 µM (inactive)
SNB-19
  GI50: > 100 µM (inactive)
OVCAR-4
  GI50: > 100 µM (inactive)
HOP-62
  GI50: > 61.7 µM (inactive)
A549
  GI50: > 100 µM (inactive)
XF498
  GI50: 52.2 µM (inactive)
NCI-H460
  GI50: > 100 µM (inactive)
NCI/ADR-RES
  GI50: > 100 µM (inactive)
SNB-75
  GI50: 42 µM (inactive)
NCI-H522
  GI50: > 100 µM (inactive)
HCC 2998
  GI50: > 100 µM (inactive)
HCT-15
  GI50: > 100 µM
LOX IMVI
  GI50: > 100 µM (inactive)
SW-620
  GI50: > 100 µM (inactive)
K562
  GI50: > 100 µM (inactive)
SF-295
  GI50: > 100 µM (inactive)
SN12C
  GI50: > 79.3 µM (inactive)
MOLT-4
  GI50: > 100 µM (inactive)
IGROV-1
  GI50: > 100 µM (inactive)
EKVX
  GI50: 80.5 µM (inactive)
OVCAR-3
  GI50: > 100 µM (inactive)
UACC-62
  GI50: 66.7 µM (inactive)
NCI-H23
  GI50: > 100 µM (inactive)
Malme-3M
  GI50: > 100 µM (inactive)
HL-60
  GI50: 60.3 µM (inactive)
U-251
  GI50: > 100 µM (inactive)
SF-539
  GI50: > 100 µM (inactive)
NCI-H226
  GI50: 22.2 µM (inactive)
CCRF-CEM
  GI50: > 100 µM (inactive)
CAKI-1
  GI50: 0.452 µM (active)
UO-31
  GI50: > 100 µM (inactive)
SF-268
  GI50: > 100 µM (inactive)
MCF7
  GI50: > 100 µM (inactive)
UACC-257
  GI50: > 100 µM (inactive)
SK-MEL-28
  GI50: > 100 µM (inactive)
OVCAR-8
  GI50: > 100 µM (inactive)

## CCOC(=O)Nc1cc2nnc(-c3ccccc3)nc2c(N)n1
HOP-92
  GI50: 13 µM (inactive)
KM-20L2
  GI50: 4.25 µM (inactive)
SK-MEL-5
  GI50: 2.23 µM (inactive)
DMS-273
  GI50: 7.36 µM (inactive)
SK-MEL-2
  GI50: 11.4 µM (inactive)
COLO 205
  GI50: 2.73 µM (inactive)
DLD-1
  GI50: 18.6 µM (inactive)
DMS-114
  GI50: 27.6 µM (inactive)
SK-OV-3
  GI50: 2.45 µM (inactive)
HT-29
  GI50: 6.07 µM (inactive)
RPMI-8226
  GI50: 24.3 µM (inactive)
RXF 393
  GI50: 18 µM (inactive)
KM12
  GI50: 1.1 µM (active)
HCT-116
  GI50: 10.9 µM (inactive)
OVCAR-5
  GI50: 23.1 µM (inactive)
SNB-19
  GI50: 32.1 µM (inactive)
OVCAR-4
  GI50: 14.9 µM (inactive)
SR
  GI50: 23.9 µM (inactive)
786-0
  GI50: 10.4 µM (inactive)
HOP-62
  GI50: 17.3 µM (inactive)
A549
  GI50: 4.81 µM (inactive)
XF498
  GI50: 31.4 µM (inactive)
NCI-H460
  GI50: 3.28 µM (inactive)
SNB-75
  GI50: 14.9 µM (inactive)
NCI-H522
  GI50: > 10 µM (inactive)
HCC 2998
  GI50: 15.8 µM (inactive)
HCT-15
  GI50: 6.46 µM
LXFL 529
  GI50: 32.1 µM (inactive)
LOX IMVI
  GI50: 14.7 µM (inactive)
SW-620
  GI50: 14.6 µM (inactive)
K562
  GI50: 5.14 µM (inactive)
SF-295
  GI50: 3.52 µM (inactive)
SN12C
  GI50: 35.2 µM (inactive)
M19-MEL
  GI50: 4.35 µM (inactive)
IGROV-1
  GI50: 13.9 µM (inactive)
EKVX
  GI50: 43.7 µM (inactive)
OVCAR-3
  GI50: 6.43 µM (inactive)
UACC-62
  GI50: 9.35 µM (inactive)
NCI-H23
  GI50: 14.1 µM (inactive)
Malme-3M
  GI50: 4.8 µM (inactive)
HL-60
  GI50: 17.7 µM (inactive)
U-251
  GI50: 30.5 µM (inactive)
SF-539
  GI50: 18.4 µM (inactive)
ACHN
  GI50: 5.7 µM (inactive)
NCI-H226
  GI50: 24 µM (inactive)
CCRF-CEM
  GI50: 32.1 µM (inactive)
M14
  GI50: 4.06 µM (inactive)
CAKI-1
  GI50: 27.6 µM (inactive)
UO-31
  GI50: 27.9 µM (inactive)
SF-268
  GI50: 29.2 µM (inactive)
UACC-257
  GI50: 15.7 µM (inactive)
SK-MEL-28
  GI50: 16.2 µM (inactive)
OVCAR-8
  GI50: 23.6 µM (inactive)
TK-10
  GI50: 37.5 µM (inactive)
